Assay results reported in US11064940B2, “Methods for detecting and treating pain using brain activity” (Rhode Island Hospital, priority 2016, dated 2021).
Like-named read-outs stand apart in the source and are kept apart here.

Key:
male Sprague-Dawley rats [1] = experiment: Thermal hyperalgesia, paw withdrawal latency (PWL) to radiant heat; assay type: in vivo, rat
male Sprague-Dawley rats [2] = experiment: Cortical EEG coherence (3-30 Hz) between S1 and PFC electrodes; assay type: in vivo, rat
[3] = system: transgenic mice co-expressing VGAT with Channelrhodopsin-2; experiment: SI theta power (LFP) after intradermal capsaicin in VGAT-ChR2 mice; assay type: in vivo, mouse; conditions: 15-20 minutes after intradermal injection of capsaicin in the hindpaw, n=5 mice
Description: Thalamic bursts are triggered predominantly by GABAergic drive from the reticular thalamic nucleus (TRN), a thin layer overlaying the thalamus that receives strong input from limbic cortical areas. To selectively induce thalamic bursts, TRNs were optically stimulated in awake, unrestrained transgenic mice co-expressing the vesicular GABA transporter (VGAT) with Channelrhodopsin-2 (ChR2). In these mice, ChR2 expression in the thalamus is restricted to the TRN. Age-matched wild-type (C57 Bl\6J) non-ChR2 expressing mice were also used to control for non-specific optical stimulation effects. The naïve state refers to normal conditions prior to induction of the pain models. A custom-made multi-channel system was used to record extracellularly from putative single-units in ventral posterolateral (VPL) thalamus and local field potential (LFP) in the primary somatosensory cortex (S1) hindlimb area (FIGS. 9A-9B). For a description of the FlexDrive system assembly see www.open-ephys.org/[…]. […] FlexDrives were fixed to the skull using C&B-METABOND® Quick! Adhesive (Parkell). After 3 days postoperatively, tetrodes were lowered incrementally ( 500 μm over 5-7 days) until auditory confirmation of typical neuronal responses as expected in VPL and SI (e.g., increased multiunit firing) evoked by light brushing of the left hindpaw. Tetrode positions were also corroborated by stereotaxic coordinates. […]

VPL neurons = experiment: Spontaneous burst firing of VPL thalamic neurons after capsaicin; assay type: in vivo, mouse; conditions: after capsaicin injection, n=17 units, 5 mice
Description: A custom-made multi-channel system was used to record extracellularly from putative single-units in ventral posterolateral (VPL) thalamus and local field potential (LFP) in the primary somatosensory cortex (S1) hindlimb area (FIGS. 9A-9B). For a description of the FlexDrive system assembly see www.open-ephys.org/[…]. […] FlexDrives were fixed to the skull using C&B-METABOND® Quick! Adhesive (Parkell). After 3 days postoperatively, tetrodes were lowered incrementally ( 500 μm over 5-7 days) until auditory confirmation of typical neuronal responses as expected in VPL and SI (e.g., increased multiunit firing) evoked by light brushing of the left hindpaw. Tetrode positions were also corroborated by stereotaxic coordinates. […] Chronic implants were stable over several weeks, allowing longitudinal analysis of neuronal activity with behavioral testing of mechanical sensitivity. […] Sorted spikes were then screened visually and inspected for false-positive or overlapping unitary assignments. Only one electrode per tetrode was used for spike sorting to minimize redundant assignments from the same unit. […] Moreover, isolation of putative unitary spikes also met the criterion of inter-spike interval (ISI)>2 ms (refractory period). […]

male Sprague-Dawley rats [4] = system: male Sprague-Dawley rats
[5] = system: transgenic mice co-expressing VGAT with Channelrhodopsin-2; experiment: Mechanical paw withdrawal threshold to von Frey filaments after capsaicin; conditions: within 15-20 minutes after capsaicin injection, n=7 mice
Description: For acute and chronic pain models, capsaicin (0.1%, 10 μl, intradermal) was injected into the plantar aspect of the left hindpaw under sedation (1.5% isoflurane <2 min) to prevent stress due to restraining the hindpaw.
Mechanical sensitivity of the hindpaw was assessed by measuring the threshold of withdrawal in response to the application of calibrated von Frey filaments of different bending forces to the plantar aspect of the hindpaw according to the ‘up-down’ method, whereby filaments of different bending forces were pressed against the paw until buckling for a maximum of 3 seconds or a withdrawal reflex.

[6] = 30 min after capsaicin, n=8 rats
[7] = rats with capsaicin, ibuprofen 30 mg/kg i.p.
[8] = rats with capsaicin, ibuprofen 30 mg/kg i.p. concomitantly with capsaicin, EEG 30 min after
[9] = rats with CCI, d14, 30 min after i.p. pregabalin
[10] = rats with CFA, d2, before / 30 min after i.p. pregabalin

SMILES: COc1cc(CNC(=O)CCCC/C=C/C(C)C)ccc1O [capsaicin]
- paw withdrawal latency (PWL) (male Sprague-Dawley rats [1]; [6]): 6.00 ± 0.24 s
- paw withdrawal latency (PWL) (male Sprague-Dawley rats [1]; 24 hour after capsaicin): 9.15 ± 0.26 s
- PWL (FIG. 4B) (male Sprague-Dawley rats [1]; [7]): 64±3
- cS1-iS1 coherence (male Sprague-Dawley rats [2]; rats with capsaicin or CFA): did not significantly effect
- iS1-PFC coherence (male Sprague-Dawley rats [2]; rats with capsaicin or CFA): did not significantly effect
- coherence between cS1 and PFC (mean 3-30 Hz coherence) (male Sprague-Dawley rats [2]; rats with capsaicin, n=7 rats): 0.61±0.05
- SI power in the theta band at 3.8-6.2 Hz [3]: 8.15×10^−2±0.13×10^−2 mV^2
- rate of spontaneous burst firing in VPL neurons (VPL neurons): 0.64±0.11
- PFC EEG mean power between 3 Hz to 30 Hz (male Sprague-Dawley rats [4]; [6]): 0.67±0.06 mV^2×10^−5
- cS1 EEG mean power between 3 Hz to 30 Hz (male Sprague-Dawley rats [4]; [6]): 1.05±0.11 mV^2×10^−5
- iS1 EEG mean power between 3 Hz to 30 Hz (male Sprague-Dawley rats [4]; [6]): 1.05±0.8 mV^2×10^−5
- PFC EEG mean power between 3 Hz to 30 Hz (male Sprague-Dawley rats [4]; 24 hours after capsaicin): 0.65±0.07 mV^2×10^−5
- cS1 EEG mean power between 3 Hz to 30 Hz (male Sprague-Dawley rats [4]; 24 hours after capsaicin): 0.89±0.12 mV^2×10^−5
- iS1 EEG mean power between 3 Hz to 30 Hz (male Sprague-Dawley rats [4]; 24 hours after capsaicin): 0.90±0.18 mV^2×10^−5
- PFC EEG mean power (male Sprague-Dawley rats [4]; [8]): 123±16
- cS1 EEG mean power (FIG. 4A) (male Sprague-Dawley rats [4]; [8]): 128±17
- iS1 EEG mean power (male Sprague-Dawley rats [4]; [8]): 124±14
- paw withdrawal threshold (von Frey) [5]: 1.00 ± 0.37 g

SMILES: CC(C)Cc1ccc(C(C)C(=O)O)cc1 (stereo not shown) [ibuprofen]
- PWL (FIG. 4B) (male Sprague-Dawley rats [1]; [7]): 114±10
- PFC EEG mean power (male Sprague-Dawley rats [4]; [8]): 117±18
- iS1 EEG mean power (male Sprague-Dawley rats [4]; [8]): 143±35

SMILES: Cc1cccc(C)c1OCC(C)N (stereo not shown) [mexiletine]
- PWL (FIG. 4B) (male Sprague-Dawley rats [1]; rats with CCI, after mexiletine 10 mg/kg i.p.): 119±17
- coherence between cS1 and PFC (mean 3-30 Hz coherence) (male Sprague-Dawley rats [2]; rats with CCI d16, after mexiletine, n=5 rats): 0.50±0.10
- PFC EEG mean power (male Sprague-Dawley rats [4]; rat, in vivo): 113±6
- adverse EEG signs (diffuse or paroxysmal slow activity associated with drowsiness) (male Sprague-Dawley rats [4]; rat, in vivo): did not manifest adverse EEG signs
- cS1 EEG mean power (FIG. 4A) (male Sprague-Dawley rats [4]; rat, in vivo): 134±18
- iS1 EEG mean power (male Sprague-Dawley rats [4]; rat, in vivo): 13926

SMILES: CC(C)C[C@H](CN)CC(=O)O [pregabalin]
- PWL (FIG. 4B) (male Sprague-Dawley rats [1]; rats with CCI, after pregabalin): 119±5
- PWL (FIG. 4B) (male Sprague-Dawley rats [1]; rats with CFA, before / after pregabalin): 132±17
- coherence between cS1 and PFC (mean 3-30 Hz coherence) (male Sprague-Dawley rats [2]; rats with CCI d14, after pregabalin, n=5 rats): 0.61±0.03
- adverse EEG signs (diffuse or paroxysmal slow activity associated with drowsiness) (male Sprague-Dawley rats [4]; rat, in vivo): did not manifest adverse EEG signs
- PFC EEG mean power (male Sprague-Dawley rats [4]; [9]): 133±14
- cS1 EEG mean power (FIG. 4A) (male Sprague-Dawley rats [4]; [9]): 87±12
- iS1 EEG mean power (male Sprague-Dawley rats [4]; [9]): 151±20
- PFC EEG mean power (male Sprague-Dawley rats [4]; [10]): 138±20
- cS1 EEG mean power (FIG. 4A) (male Sprague-Dawley rats [4]; [10]): 209±35
- iS1 EEG mean power (male Sprague-Dawley rats [4]; [10]): 133±9
